In ChEMBL document CHEMBL3414554, “Novel 1-(2-aryl-2-adamantyl)piperazine derivatives with antiproliferative activity” (Eur J Med Chem, 2015):

What was measured:
HeLa = test: Cytotoxicity against human HeLa cells after 24 hrs by MTT colorimetric assay; format: functional, cell-based
MDA-MB-231 = test: Cytotoxicity against human MDA-MB-231 cells after 24 hrs by MTT colorimetric assay; format: functional, cell-based; conditions: MDA-MB-231, 24 h
[1] = Cytotoxicity against human MIAPaCa2 cells after 24 hrs by MTT colorimetric assay; format: functional, cell-based; conditions: MIA PaCa-2, 24 h
NCI-H1975 = test: Cytotoxicity against human NCI-H1975 cells after 24 hrs by MTT colorimetric assay; format: functional, cell-based; conditions: NCI-H1975, 24 h
HUVEC = test: Cytotoxicity against HUVEC cells after 48 hrs by SRB staining assay; format: cell-based; conditions: human
NHDF = test: Cytotoxicity against NHDF cells after 48 hrs by SRB staining assay; format: cell-based; conditions: human
[2] = target: Sigma non-opioid intracellular receptor 1 (Homo sapiens, UniProt Q99720); test: Displacement of [3H]-(+)-pentazocine from sigma-1 receptor in human Jurkat cell membrane by liquid scintillation spectrometry; format: cell membranes
[3] = Displacement of [3H]-DTG from sigma-2 receptor in rat cerebral cortex membranes in presence of (+)-pentazocine by liquid scintillation spectrometry; format: cell membranes, Membrane
Jurkat = test: Selectivity ratio of IC50 for sigma-2 receptor in rat cerebral cortex membranes to IC50 for sigma-1 receptor in human Jurkat cell membrane; format: cell-based
[4] = Displacement of [3H]BTX-B from neuronal Na+ channel in male Sprague-Dawley rat brain synaptosomal membrane vesicles by liquid scintillation spectrometry; format: tissue-based

Chain of Sigma non-opioid intracellular receptor 1 (Q99720 whole entry): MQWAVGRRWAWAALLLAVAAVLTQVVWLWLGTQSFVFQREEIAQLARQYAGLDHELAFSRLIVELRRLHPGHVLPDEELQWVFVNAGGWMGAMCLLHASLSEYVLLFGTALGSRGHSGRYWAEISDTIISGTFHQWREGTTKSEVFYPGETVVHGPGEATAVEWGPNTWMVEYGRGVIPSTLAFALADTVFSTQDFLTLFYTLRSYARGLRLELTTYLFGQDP

| SMILES | IC50 (HeLa) [µM] | IC50 (MDA-MB-231) [µM] | IC50 [1] [µM] | IC50 (NCI-H1975) [µM] | LC50 (HUVEC) [µM] | LC50 (NHDF) [µM] | IC50 [2] [µM] | IC50 [3] [µM] | Ratio IC50 (Jurkat) | IC50 [4] [µM] |
| --- | --- | --- | --- | --- | --- | --- | --- | --- | --- | --- |
| Fc1ccc(C2(N3CCNCC3)C3CC4CC(C3)CC2C4)cc1.O=C(O)/C=C\C(=O)O (centres undefined) | 12.9 | 14.6 | 11.7 | 12.8 | > 100 | 93.66 | – | – | – | – |
| O=C(CN1CCCCC1)N1CCN(C2(c3ccccc3)C3CC4CC(C3)CC2C4)CC1 (centres undefined) | 12.4 | 11.4 | 12.2 | 16.3 | 60.35 | 58.43 | 0.135 | 3.34 | 24.7 | 2.44 |
| CN1CCN(C2(c3ccc(F)cc3)C3CC4CC(C3)CC2C4)CC1 (centres undefined) | 15.3 | 15.7 | 16.6 | 14.6 | – | – | – | – | – | – |
| CN1CCN(C2(c3ccccc3)C3CC4CC(C3)CC2C4)CC1 (centres undefined) | 17.4 | 17.4 | 19.5 | 18.7 | – | – | – | – | – | – |
| O=C(N1CCN(C2(c3ccccc3)C3CC4CC(C3)CC2C4)CC1)n1ccnc1 (centres undefined) | 12.2 | 13.5 | 13.5 | 10.5 | > 100 | 98.16 | – | – | – | – |
| CCOC(=O)N1CCN(C2(c3ccc(F)cc3)C3CC4CC(C3)CC2C4)CC1 (centres undefined) | 14.5 | 21 | 18.5 | 17.5 | – | – | – | – | – | – |
| CCOC(=O)N1CCN(C2(c3ccccc3)C3CC4CC(C3)CC2C4)CC1 (centres undefined) | 23 | 28 | 25.4 | 24.2 | > 100 | 100 | – | – | – | – |
| O=C(CN1CCCCC1)N1CCN(C2(c3ccc(F)cc3)C3CC4CC(C3)CC2C4)CC1 (centres undefined) | 8.4 | 6.8 | 14.6 | 12.7 | 88.78 | 85.26 | – | – | – | – |
| O=C(O)/C=C\C(=O)O.c1ccc(C2(N3CCNCC3)C3CC4CC(C3)CC2C4)cc1 (centres undefined) | 9.2 | 8.4 | 12.3 | 17.3 | 95.45 | 90 | – | – | – | – |
| O=C(c1ccc(Cl)s1)N1CCN(C2(c3ccccc3)C3CC4CC(C3)CC2C4)CC1 (centres undefined) | 12.8 | 11.4 | 12.4 | 12.7 | – | – | – | – | – | – |
| Nc1ccn([C@@H]2O[C@H](CO)[C@@H](O)C2(F)F)c(=O)n1 [GEMCITABINE] | 3.3 | 0.19 | 0.6 | – | – | – | – | – | – | – |
